In PubChem BioAssay (NCI) one finds GI50 and TGI data, which are given here for eight compounds.

Among the test systems are RXF 393 renal; NCI-H226 lung; LOX IMVI melanoma; SF-539 CNS; UACC-257 melanoma; MALME-3M melanoma; NCI-H23 lung; HOP-92 NSCLC; SW-620 colon; NCI-H460 lung.
Common to all, as to assay: DTP human tumour cell line panel, 48 h

Structures are written as SMILES. Values joined by “and” are separate entries in the source; they are usually repeats but may differ in a detail not shown here. Identical values can stand only once.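 Cells were grown in 96-well plates and exposed to each compound for 48 hours at five concentrations; endpoints were interpolated linearly between bracketing concentrations, or set to the highest concentration if not reached. GI50 marks 50% less growth. The concentration for full growth arrest is given as TGI.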

Consider `CCNNC(=O)[C@@H]1[C@H](c2cc(OC)c(OC)c(OC)c2)c2cc3c(cc2[C@H](O)[C@H]1CO)OCO3`, for which the 50% growth inhibitory concentration (GI50) (commonly the concentration at which growth is held to half of that of the control) was 0.34 µM with RXF 393 renal; 0.311 µM in the test on NCI-H226 lung; 0.357 µM in the test with LOX IMVI melanoma; 0.294 µM with SF-539 CNS; 4.37 µM in the test with UACC-257 melanoma; greater than 20.5 µM with MALME-3M melanoma. Also, the concentration for 50% growth inhibition (GI50) was 0.372 µM in the test on NCI-H23 lung, 0.433 µM in the test on HOP-92 NSCLC, 0.396 µM in the test on SW-620 colon and 0.343 µM in the test on NCI-H460 lung. The TGI (in general, the concentration giving total growth inhibition) in the test on RXF 393 renal was greater than 100 µM; with LOX IMVI melanoma it was greater than 100 µM; with SF-539 CNS it was 0.802 µM; in the test on MALME-3M melanoma it was greater than 100 µM; with NCI-H23 lung it was greater than 100 µM; with HOP-92 NSCLC, greater than 100 µM. Further, the TGI in the test on SW-620 colon and in the test with NCI-H460 lung was greater than 100 µM throughout.

As to `COc1cc2c3c(n(CCCBr)c(=O)c2cc1OC)-c1ccc(F)cc1C3=O`, the GI50 is 34.4 µM in the test with RXF 393 renal; 28 µM with NCI-H226 lung; 5.48 µM in the test with LOX IMVI melanoma; 3.54 µM in the test on SF-539 CNS; 76.4 µM in the test on UACC-257 melanoma; 43 µM with MALME-3M melanoma. Further, the GI50 in the test on NCI-H23 lung was 17.8 µM; in the test with HOP-92 NSCLC, 4.07 µM; in the test on SW-620 colon, 7.02 µM; with NCI-H460 lung, 2.38 µM. For the same compound, the TGI with RXF 393 renal is greater than 100 µM; in the test with NCI-H226 lung, greater than 100 µM; in the test with LOX IMVI melanoma, 30.1 µM; with SF-539 CNS, 15.2 µM; in the test on UACC-257 melanoma, greater than 100 µM; in the test with MALME-3M melanoma, greater than 100 µM. For the same compound, the total growth inhibition concentration (TGI) is 76.4 µM in the test on NCI-H23 lung, 28.4 µM in the test with HOP-92 NSCLC, greater than 100 µM in the test on SW-620 colon and 47.2 µM in the test on NCI-H460 lung.

In the case of `CC1(C(=O)O)CCOc2ccccc21` (stereo not given), the total growth inhibition concentration (TGI) with RXF 393 renal, in the test on NCI-H226 lung, in the test with LOX IMVI melanoma, in the test on SF-539 CNS, in the test with UACC-257 melanoma and in the test with MALME-3M melanoma was greater than 100 µM throughout. For the same compound, the TGI in the test with NCI-H23 lung, in the test on HOP-92 NSCLC, in the test with SW-620 colon and in the test with NCI-H460 lung was greater than 100 µM throughout.

As for `C[C@@H](COCCC(=O)N1CCN(c2ncc(C(F)(F)F)cn2)CC1)Nc1cn[nH]c(=O)c1C(F)(F)F`, the GI50 was 32.8 µM in the test on RXF 393 renal; greater than 56.2 µM with NCI-H226 lung; 27.9 µM in the test with LOX IMVI melanoma; 16.4 µM in the test on SF-539 CNS; greater than 94.4 µM with UACC-257 melanoma; greater than 100 µM in the test on MALME-3M melanoma. In addition, the GI50 is 28.3 µM in the test on NCI-H23 lung, 0.323 µM with HOP-92 NSCLC, 3.84 µM with SW-620 colon and 18.6 µM in the test with NCI-H460 lung. Besides, the TGI in the test on RXF 393 renal, in the test with NCI-H226 lung, with LOX IMVI melanoma, in the test with SF-539 CNS, in the test on UACC-257 melanoma and in the test with MALME-3M melanoma was greater than 100 µM in each case. In addition, the TGI is greater than 100 µM with NCI-H23 lung, greater than 65.7 µM in the test with HOP-92 NSCLC, greater than 100 µM in the test on SW-620 colon and greater than 100 µM in the test with NCI-H460 lung.

Turning to `N#C/C(=C\c1c(-c2ccccc2)[nH]c2ccccc12)C(=O)c1ccccc1`, the GI50 is 9.61 µM in the test with RXF 393 renal; 6.83 µM with NCI-H226 lung; 7.4 µM with LOX IMVI melanoma; 6.03 µM in the test on SF-539 CNS; 10.9 µM in the test on UACC-257 melanoma; 12.3 µM in the test on MALME-3M melanoma. Moreover, the GI50 is 16 µM in the test on NCI-H23 lung, 4.51 µM in the test on HOP-92 NSCLC, 2.97 µM with SW-620 colon and 4.52 µM in the test with NCI-H460 lung. In addition, the TGI was greater than 100 µM with RXF 393 renal; greater than 100 µM with NCI-H226 lung; greater than 100 µM in the test on LOX IMVI melanoma; 43.9 µM with SF-539 CNS; greater than 100 µM with UACC-257 melanoma; greater than 100 µM with MALME-3M melanoma. Also, the total growth inhibition concentration (TGI) with NCI-H23 lung is greater than 100 µM; in the test with HOP-92 NSCLC, 28.7 µM; with SW-620 colon, greater than 100 µM; in the test with NCI-H460 lung, greater than 100 µM.

In the case of `Cc1nc2c(N3CCCC3)nc(N3CCNCC3)nc2nc1NCc1ccccc1`, the GI50 was 4.81 µM in the test on RXF 393 renal; 7.54 µM in the test on NCI-H226 lung; 2.47 µM in the test with LOX IMVI melanoma; 6.21 µM with SF-539 CNS; 7.15 µM with UACC-257 melanoma; 7.17 µM with MALME-3M melanoma. Also, the figures for the GI50 with NCI-H23 lung, in the test with SW-620 colon and in the test with NCI-H460 lung were 6.77 µM, 5.9 µM and 5.97 µM, respectively. In addition, the total growth inhibition concentration (TGI) with RXF 393 renal is 11 µM and 2.66 µM; in the test with NCI-H226 lung, 16.1 µM and 28.4 µM; in the test on LOX IMVI melanoma, 16.8 µM and 3.19 µM; in the test on SF-539 CNS it was 13.4 µM and 7 µM; with UACC-257 melanoma, 12.9 µM and 3.64 µM; with MALME-3M melanoma, 14.5 µM and 4.23 µM. The TGI in the test with NCI-H23 lung is 12.7 µM and 23.7 µM; in the test on HOP-92 NSCLC, 7.83 µM and 13.7 µM; with SW-620 colon, 12.5 µM and 7.27 µM; in the test with NCI-H460 lung, 13.3 µM and 13.4 µM.

`Cc1ccc2nc(-c3ccc(N)c4ccccc34)[nH]c2c1`: the 50% growth inhibitory concentration (GI50) is 0.265 µM in the test with RXF 393 renal; 0.751 µM with NCI-H226 lung; 0.0801 µM with LOX IMVI melanoma; 0.0607 µM in the test with SF-539 CNS; 9.5 µM in the test with UACC-257 melanoma; 5.85 µM in the test with MALME-3M melanoma. Moreover, the GI50 was 0.159 µM in the test on NCI-H23 lung, 2.62 µM in the test with HOP-92 NSCLC and 3.97 µM in the test on NCI-H460 lung. Also, the TGI amounted to 14.7 µM with RXF 393 renal; 32.1 µM in the test on NCI-H226 lung; 15.2 µM with LOX IMVI melanoma; 1.64 µM with SF-539 CNS; 34.5 µM with UACC-257 melanoma; 27.3 µM with MALME-3M melanoma. The concentration for total growth inhibition (TGI) in the test with NCI-H23 lung was found to be 23.9 µM; in the test on HOP-92 NSCLC, 49.1 µM; in the test with SW-620 colon it was 27.5 µM.

With `O=C(CCSc1ccnc2c(C(F)(F)F)cccc12)N/N=C/c1cc(Cl)c(Cl)cc1Cl`, the GI50 is 20.9 µM with RXF 393 renal; 17.6 µM in the test on NCI-H226 lung; 17.8 µM in the test on LOX IMVI melanoma; 18 µM in the test with SF-539 CNS; 83.5 µM with UACC-257 melanoma; 50.1 µM in the test on MALME-3M melanoma. For the same compound, the GI50 in the test on NCI-H23 lung was 24.1 µM; with HOP-92 NSCLC it was 16.3 µM; with SW-620 colon, 23.8 µM; in the test on NCI-H460 lung, 25.4 µM. The TGI is 52.3 µM in the test on RXF 393 renal; 39.3 µM with NCI-H226 lung; 31.8 µM in the test with LOX IMVI melanoma; 35.4 µM in the test with SF-539 CNS; greater than 100 µM in the test on UACC-257 melanoma; greater than 100 µM in the test on MALME-3M melanoma. Further, the concentration for total growth inhibition (TGI) came out at 52.1 µM in the test on NCI-H23 lung, 34.3 µM in the test with HOP-92 NSCLC, 43.4 µM in the test with SW-620 colon and 54.5 µM with NCI-H460 lung.
